The subject of test [1] is HeLa (human cervical cancer) cells. Nature of the test: MTT cytotoxicity assay, HeLa. The test is classed as cell-based. The settings on record: 72 h, 3 days, read-out: Means of IC50. On the procedure: (§1) Pomiferin is dissolved in DMSO at a final concentration of 100 mmol/L and stored at −20° C. Cytotoxicity is assessed using the 3-(4,5-dimethylthiazol-2-yl)-2,5-diphenyltetrazolium bromide assay. 4000-8000 HeLa (human cervical cancer), MCF-7 (human breast cancer), HepG2 and Hep3B (human liver cancer), H1299 and A549 (human lung cancer), LNCap (human prostate cancer) and LLC-1 (mouse Lewis lung carcinoma) cells are seeded on 96-well plates per well. After overnight pre-incubation, the cells are exposed to different concentrations of pomiferin ([…]) for 3 days. Subsequently, 10 μL of MTT reagents is added to each well and incubated at 37° C. for 4 hours followed by the addition of 100 μL solubilization buffer (10% SDS in 0.01 mol/L HCl) and overnight incubation. Absorbance at 585 nm is determined from each well the next day. The percentage of cell viability is calculated using the following formula: Cell viability (%)=Cells number treated/Cells number DMSO control×100. Data are obtained from three independent experiments.
On the technique in general: Tetrazolium assays rely on reduction of a dye to a coloured formazan, in cell work by metabolically active cells.

Test [2] concerns HCT-116 p53+/+ isogenic colon cancer cells. Nature of the test: MTT cytotoxicity assay, HCT116 p53+/+. Format: cell-based. The settings on record: Homo sapiens, HCT-116, 72 h, HCT116 p53+/+ (wild-type), 3 days, read-out: Means of IC50. The method, then: (§2) The test compound of pomiferin is dissolved in DMSO at a final concentration of 100 mmol/L and stored at −20° C. Cytotoxicity is assessed using the 3-(4,5-dimethylthiazol-2-yl)-2,5-diphenyltetrazolium bromide assay as previously described^29. 4000 of drug-resistant HCT-116 p53+/+, HCT-116 p53−/− and HCT-116 p53−/− isogenic colon cancer cells are seeded on 96-well plates per well. After overnight pre-incubation, the cells are exposed to different concentrations of pomiferin (namely 100, 50, 25, 12.5, 6.25, 3.125, 1.5625, 0.78, 0.39, 0.195, 0.079, 0.039 mol/L) for 3 days. Subsequently, 10 μL of MTT reagents is added to each well and incubated at 37° C. for 4 hours, followed by the addition of 100 μL solubilization buffer (10% SDS in 0.01 mol/L HCl) and overnight incubation. Absorbance at 585 nm is determined from each well on the following day. The percentage of cell viability is calculated using the following formula: Cell viability (%)=Cells numbertreated/Cells numberDMSO control×100. Data is obtained from three independent experiments.

For test [3], the system named is caspase wild-type (caspase WT) mouse embryonic fibroblasts. Nature of the test: MTT cytotoxicity assay, caspase WT MEFs. The test is classed as cell-based. The settings on record: Fibroblast, 72 h, 3 days, read-out: Means of IC50. The method, then: as §2, with “2500” for “4000”, “caspase wild-type (caspase WT), caspase-3 deficient (caspase 3KO), caspase-7 deficient (caspase 7KO), caspase-3/-7 deficient (caspase 3/7 DKO), caspase-8 deficient (caspase 8KO), Bax-Bak wild-type (Bak-Bak WT)” for “drug-resistant HCT-116 p53+/+, HCT-116 p53−/−”, “Bax-Bak double knock out (Bak-Bak DKO) mouse embryonic fibroblasts (MEFs)” for “HCT-116 p53−/− isogenic colon cancer cells”, “μmol/L)” for “mol/L)”

In test [4] the test system is drug-resistant HCT-116 p53−/− colon cancer cells. The test can be described thus: Annexin V/PI flow cytometry cell death, HCT-116 p53−/−. Format: cell-based. The settings on record: 10 μM pomiferin alone, 24 h, FIGS. 9A & B. On the procedure:
(§3) Cell death is measured using an annexin V staining kit (BD Biosciences, San Jose, Calif., USA). Briefly, drug-resistant HCT-116 p53−/− deficient colon cancer cells are treated with the 10 μM pomiferin in the presence or absence of 5 mM autophagic inhibitor 3-MA or 10 M calcium chelator BAPTA/AM for 24 h. Cells are then harvested and analysed by multiparametric flow cytometry using FITC-Annexin V and Propidium iodide staining (BD Biosciences, San Jose, Calif., USA) according to the manufacturer's instructions. Flow cytometry is then carried out using a FACSCalibur flow cytometer (BD Biosciences, San Jose, Calif., USA). Data acquisition and analysis is performed with CellQuest (BD Biosciences, San Jose, Calif., USA). Data are obtained from three independent experiments.
(In general: Flow cytometry measures light scatter and fluorescence of single cells or particles in a stream.)

In the next test the test system is Bax-Bak wild-type MEFs. Nature of the test: Annexin V/PI flow cytometry cell death, Bax-Bak wild-type MEFs. The test is classed as cell-based, mouse. The note with it: 5 μM, 24 h. On the procedure:
as §3, with “Bax-Bak wild-type and Bax-Bak DKO MEFs” for “drug-resistant HCT-116 p53−/− deficient colon cancer cells”, “5” for “10”, “pomiferin” for “pomiferin in the presence or absence of 5 mM autophagic inhibitor 3-MA or 10 M calcium chelator BAPTA/AM”

Test [5] deals with LLC-1 (mouse Lewis lung carcinoma) cells. Nature of the test: MTT cytotoxicity assay, LLC-1. Format: cell-based. The settings on record: LLC1, 72 h, LLC-1 (Lung), 3 days, read-out: Means of IC50. On the procedure: as §1
Another test deals with HeLa cancer cells. Nature of the test: Western blot of autophagic marker LC3-II conversion. The test is classed as cell-based, human. The note with it: 0-15 μM, FIG. 1A. On the procedure: After pomiferin treatments in the presence or absence of lysosomal inhibitor 50 nM of Bafilomycin A1 or autophagy inhibitor 5 mM 3-MA, HeLa cancer cells are harvested and lysed in RIPA buffer (Cell Signaling Technologies Inc., Beverly, Mass.). The cell lysates are then resolved by SDS-PAGE. After electrophoresis, the proteins from SDS-PAGE are transferred to nitrocellulose membrane which is then blocked with 5% non-fat dried milk for 60 minutes. The membrane is then incubated with LC3 primary antibodies (1:1000) in TBST overnight at 4° C. After that, the membrane is further incubated with HRP-conjugated secondary antibodies for 60 minutes. Finally, protein bands are visualized by using the ECL Western Blotting Detection Reagents (Invitrogen, Paisley, Scotland, UK).

Molecules are shown by their SMILES.

These results are taken from US20170014375A1, “PHARMACEUTICAL COMPOSITION COMPRISING EFFECTIVE DOSE OF POMIFERIN FOR TREATING CANCERS” (Macau University of Science and Technology, priority 2015, published 2017).

The term IC50 denotes the concentration that gives 50% inhibition. Take `CC(C)=CCc1c2c(c3occ(-c4ccc(O)c(O)c4)c(=O)c3c1O)C=CC(C)(C)O2` [pomiferin]: the 50% inhibitory concentration (IC50) in test [1] was found to be 7.36 µM; in test [2] it was 6.51 µM; in test [3] it was 7.63 µM; in test [5], 3.82 µM. The “cell death (in words)” value in test [4] is given as “significantly induced cell death”. Further, in the test with Bax-Bak wild-type MEFs, the cell death is reported as approximately 40%. The “autophagic marker LC3-II conversion” value with HeLa cancer cells was “induced”.
